One data set concerns c-jun mRNA. Put plainly: c-jun mRNA expression in TPA-induced A549 cells, Northern blotting. The data set is classed as cell-based, human. The conditions noted are these: for c-jun mRNA LEVELS (% CONTROL): TPA induction, 1 hour; for c-jun mRNA LEVELS (% CONTROL) / effect on c-jun mRNA levels during TPA induction (in words) / c-jun (mRNA level, specificity experiment): A549 cells; for c-jun mRNA % CONTROL: 400 nM oligonucleotide with LIPOFECTIN, control is TPA induction, at 1 hour, in A549 cells; for c-jun (mRNA level, specificity experiment): Table 5, TPA - no oligo = 100, basal = 23. The procedure: In order to evaluate the activity of potential c-fos and c-jun modulating oligonucleotides, A549 cells were grown in T-75 flasks until 80-90% confluent. (Cell line A549 is available from, inter alia, the American Type Culture Collection, Rockville, Md., as ATCC No. CCL-185.) At this time, the cells were washed twice with 10 mL of media (DMEM), followed by the addition of 5 mL of DMEM containing 20 μg/mL of LIPOFECTIN™ (i.e., DOTMA/DOPE (N-[1-(2,3-dioleyloxy)propyl]-N,N,N-[…] chloride/dioleoylphosphatidyl ethanolamine)). […] After 4 hours at 37° C., the medium was replaced with DMEM containing 10% serum. At this point, 1 μM 12-O-tetradecanoylphorbol 13-acetate (TPA) was added to induce expression of c-fos and c-jun. Cells were extracted in guanidinium one hour later, and the c-fos and c-jun mRNA expression was determined by Northern blotting. Probes for human c-jun and c-fos were PCR products prepared using primers based on the published sequences thereof (respectively, Hattori et al., Proc. Natl. Acad. Sci. U.S.A., 1988, 85:9148, and Van Straaten et al., Proc. Natl. Acad. Sci. U.S.A., 1983, 80:3183).

Another data set concerns c-fos mRNA. Put plainly: c-fos mRNA expression in TPA-induced A549 cells, Northern blotting. The data set is classed as cell-based, human. The conditions noted are these: A549 cells; for c-fos (mRNA level, specificity experiment): Table 5, TPA - no oligo = 100, basal = 5. The protocol:
In order to evaluate the activity of potential c-fos and c-jun modulating oligonucleotides, A549 cells were grown in T-75 flasks until 80-90% confluent. (Cell line A549 is available from, inter alia, the American Type Culture Collection, Rockville, Md., as ATCC No. CCL-185.) At this time, the cells were washed twice with 10 mL of media (DMEM), followed by the addition of 5 mL of DMEM containing 20 μg/mL of LIPOFECTIN™ (i.e., DOTMA/DOPE (N-[1-(2,3-dioleyloxy)propyl]-N,N,N-[…] chloride/dioleoylphosphatidyl ethanolamine)). The oligonucleotides were added from a 10 μM stock solution to a final concentration of 400 nM, and the two solutions were mixed by swirling the flasks. After 4 hours at 37° C., the medium was replaced with DMEM containing 10% serum. At this point, 1 μM 12-O-tetradecanoylphorbol 13-acetate (TPA) was added to induce expression of c-fos and c-jun. Cells were extracted in guanidinium one hour later, and the c-fos and c-jun mRNA expression was determined by Northern blotting. Probes for human c-jun and c-fos were PCR products prepared using primers based on the published sequences thereof (respectively, Hattori et al., Proc. Natl. Acad. Sci. U.S.A., 1988, 85:9148, and Van Straaten et al., Proc. Natl. Acad. Sci. U.S.A., 1983, 80:3183).
Finally, it can also be seen from Table 5 that neither active oligonucleotide has any detectable effect on mRNA levels of the other active oligonucleotide's target.
Once oligonucleotides that modulate c-Fos or c-Jun are identified, derivative or modified oligonucleotides having the same sequence thereas are prepared. In order to evaluate the effect of chemical modifications to oligonucleotides to c-fos and c-jun, the modified oligonucleotides described in Tables 8 and 9 were prepared. The effect of the c-fos-targeted oligonucleotides on c-fos RNA levels were evaluated as described in Examples 2-3. […] Other modified oligonucleotides of the invention are evaluated in like fashion. In order to evaluate the effect of PNA antisense analogs, the PNA analogs of the invention are introduced into appropriate cell lines by microinjection according to the method of Hanvey et al. (Science, 1992, 258:1481). Intracellular delivery of PNA analogs is confirmed by the use of a fluorescently tagged PNA antisense analog conjugate such as, e.g., ISIS 14240.

In another data set the test system is MMP-9. Put plainly: MMP-9 expression in TPA-induced normal human epidermal keratinocytes. It counts as cell-based. The conditions noted are these: for MMP-9 (expression): Table 17, NHEK cells harvested 24 hours after TPA treatment for 4 hours, TPA - no oligo = 100, basal = 4. The source says:
The matrix metalloproteinases (MMPs) are a family of enzymes which have the ability to degrade components of the extracellular matrix (Birkedal-Hansen, Current Op. Biol., 1995, 7, 728). […] In particular, one member of this family, matrix metalloproteinase-9 (MMP-9), is often found to be expressed only in tumors and other diseased tissues (Himeistein et al., Invasion & Metastasis, 1994, 14, 246). Several studies have shown that regulation of the MMP-9 gene may be controlled by the AP-1 transcription factor (Kerr et al., Science, 1988, 242, 1242; Kerr et al., Cell, 1990, 61, 267; Gum et al., J. Biol. Chem., 1996, 271, 10672; Hua et al., Cancer Res., 1996, 56, 5279). In order to determine whether MMP-9 expression can be influenced by AP-1 modulation, the following experiments were conducted on normal human epidermal keratinocytes (NHEKs). Although NHEKs normally express no detectable MMP-9, MMP-9 can be induced by a number of stimuli, including TPA. ISIS 10582, an oligonucleotide targeted to c-jun, was evaluated for its ability to modulate MMP-9 expression according to the protocols described in Examples 2-3 with the following exceptions: (1) NHEK cells were used instead of A549 cells, (2) the probe used, a PCR product prepared using the published sequence of the MMP-9 gene (Huhtala et al., J. Biol. Chem., 1991, 266:16485; Sato et al., Oncogene, 1993, 8:395), is specific for MMP-9 rather than c-jun, and (3) the cells were harvested 24 hours after TPA treatment for 4 hours.

Another data set concerns c-Jun. Put plainly: Induction of c-Jun by TNF-a, IL-1b or TGF-b in A549 cells. It counts as cell-based, human. The conditions noted are these: for c-Jun induction by IL-1b: inducer IL-1b 10 ng/ml, No Oligo = 100, basal = 9; for c-Jun induction by TGF-b: inducer TGF-b 10 ng/ml, No Oligo = 100, basal = 2; for c-Jun induction by TNF-a: inducer TNF-a 10 ng/ml, No Oligo = 100, basal = 5. The protocol: Inducing agents other than TPA function to raise AP-1 levels in vivo. In order to assess the ability of oligonucleotides targeted to AP-1 to antagonize the action of three such inducers, A549 cells were treated and evaluated as in Examples 2 et seq. with the exception that TNF-a, IL-1b or TGE-b (each at 10 ng/mi and all from R&D Systems, Minneapolis, Minn.) were used in place of TPA as inducers.

In a further data set the test system is c-Fos protein. Put plainly: c-Fos protein levels in TPA-induced A549 cells, immunoblot. It counts as cell-based, human. To be noted: Table 7; TPA (1 uM) for three hours; TPA - no oligo = 100, basal = 21. The protocol: The ability of the c-fos active oligonucleotide ISIS 10639 to reduce expression of the c-Fos protein was examined as follows. A549 cells were treated with oligonucleotides as in Examples 2-3, except that induction of c-Fos was effected by treatment of cells with TPA (1 uM) for three hours. At this time, whole cell protein was extracted in SDS (sodium dodecyl sulfate) buffer. Samples of extracts were electrophoresed, transferred to nitrocellulose filters which were immunoblotted using a c-Fos-specific antibody (Santa Cruz AB, Santa Cruz, Calif.).
On the technique in general: Immunoblotting shows a protein as a band on a membrane.

“Also recorded” adds a separate entry of the source. Strand notation (5' to 3'): a small letter for the sugar, then the base; units joined by * are phosphorothioate-linked, units joined directly phosphodiester-linked; [ ] holds rarer units or linkages, { } end groups; capitals alone tell only the bases. d = 2'-deoxy (DNA)

As to “TCA-GCC-CCC-GAC-GGT-CTC-TC (dT*dC*dA*dG*dC*dC*dC*dC*dC*dG*dA*dC*dG*dG*dT*dC*dT*dC*dT*dC; antisense) [ISIS 10582]”, the “c-jun mRNA LEVELS (% CONTROL)” value in the data set on c-jun mRNA (50 nM oligonucleotide) was 72 % CONTROL. For the same substance, in the data set with c-jun mRNA (100 nM oligonucleotide), the “c-jun mRNA LEVELS (% CONTROL)” value amounted to 45.5 % CONTROL. Also, the “c-jun mRNA LEVELS (% CONTROL)” value with c-jun mRNA (200 nM oligonucleotide) is on record as 29.5 % CONTROL. In the data set with c-jun mRNA, the “c-jun mRNA % CONTROL” value worked out at 17 % CONTROL; the “effect on c-jun mRNA levels during TPA induction (in words)” value was “dose-dependent; also recorded: potent and specific inhibition”; the “c-jun (mRNA level, specificity experiment)” value is given as 4. Further, the “inhibition of c-jun mRNA expression” value in the data set on c-jun mRNA (400 nM oligonucleotide, TPA-induced A549 cells) is given as 83%. Also, the “c-jun mRNA LEVELS (% CONTROL)” value with c-jun mRNA (400 nM oligonucleotide) amounted to 16 % CONTROL. Further, in the data set with c-fos mRNA, the “effect on c-fos mRNA levels during TPA induction (in words)” value is listed as “no detectable effect” and the “c-fos (mRNA level, specificity experiment)” value was found to be 91. For the same substance, in the data set with MMP-9 (NHEK cells), the “expression of MMP-9 after induction with TPA (in words)” value was “completely inhibit”. The “MMP-9 (expression)” value with MMP-9 was 6. Besides, in the data set on c-Jun, the “stimulation / induction of c-Jun by TNF-a or IL-1b (in words)” value is given as “effectively reduces”, the “c-Jun induction by IL-1b” value is recorded as 15, the “c-Jun induction by TGF-b” value amounted to 95 and the “c-Jun induction by TNF-a” value was 20.
Regarding “TCG-GCA-CCT-GAA-GGA-CTT-TC (dT*dC*dG*dG*dC*dA*dC*dC*dT*dG*dA*dA*dG*dG*dA*dC*dT*dT*dT*dC; antisense) [ISIS 11564]”, in the data set with c-jun mRNA, the “effect on c-jun mRNA levels during TPA induction (in words)” value was “no detectable effect” and the “c-jun (mRNA level, specificity experiment)” value came out at 71. Also, the “c-fos (mRNA level, specificity experiment)” value in the data set on c-fos mRNA is reported as 99. Besides, the “MMP-9 (expression)” value in the data set on MMP-9 is listed as 89.
Consider “GAG-AGA-CCG-TCG-GGC-GCT-GA (GAGAGACCGTCGGGGGCTGA; listed as DNA, chemistry not given here) [ISIS 11562]”, for which the “c-fos (mRNA level, specificity experiment)” value in the data set on c-fos mRNA is given as 89. In the data set with MMP-9, the “MMP-9 (expression)” value is on record as 99.
As to “CAC-CTC-CAC-GCG-CTT-CTG-GC (dC*dA*dC*dC*dT*dC*dC*dA*dC*dG*dC*dG*dC*dT*dT*dC*dT*dG*dG*dC; antisense) [ISIS 11563]”, the “c-fos (mRNA level, specificity experiment)” value in the data set on c-fos mRNA worked out at 99. In addition, the “MMP-9 (expression)” value in the data set on MMP-9 is listed as 95. Besides, in the data set with c-Jun, the “stimulation / induction of c-Jun by TNF-a or IL-1b (in words)” value is on record as “did not reverse”, the “c-Jun induction by IL-1b” value is listed as 94, the “c-Jun induction by TGF-b” value came to 99 and the “c-Jun induction by TNF-a” value was found to be 98.
“ATG-TGC-TAG-ATG-CGC-AAA-GT (ATGTGCTAGATGCGCAAAGT; antisense; DNA, all phosphorothioate, methylation of C not given here) [ISIS 11185]”: the “c-jun (mRNA level, specificity experiment)” value with c-jun mRNA is given as 98. In the data set on c-fos mRNA, the “effect on c-fos mRNA levels during TPA induction (in words)” value is listed as “no detectable effect” and the “c-fos (mRNA level, specificity experiment)” value came out at 93. Further, the “c-Fos (protein level)” value with c-Fos protein came to 91.
For the substance “ACG-TCC-GAT-TCC-GAG-CGC-AA (ACGTCCGATTCCGAGCGCAA; antisense; DNA, all phosphorothioate, methylation of C not given here) [ISIS 11186]”, the “c-jun (mRNA level, specificity experiment)” value with c-jun mRNA is on record as 99. Further, in the data set on c-fos mRNA, the “effect on c-fos mRNA levels during TPA induction (in words)” value was “no detectable effect” and the “c-fos (mRNA level, specificity experiment)” value was 98. In the data set on c-Fos protein, the “c-Fos (protein level)” value is recorded as 99.
Take “GCT-GTG-GGC-CTC-AAG-GAC-TT (GCTGTGGGCCTCAAGGACTT; antisense; DNA, all phosphorothioate, methylation of C not given here) [ISIS 11184]”: the “c-jun (mRNA level, specificity experiment)” value in the data set with c-jun mRNA stood at 91. In the data set on c-fos mRNA, the “effect on c-fos mRNA levels during TPA induction (in words)” value was “no detectable effect” and the “c-fos (mRNA level, specificity experiment)” value was found to be 84. In the data set on c-Fos protein, the “c-Fos (protein level)” value is on record as 97.
For “ACC-AGC-CCG-GGA-GCC-ACA-GG (dA*dC*dC*dA*dG*dC*dC*dC*dG*dG*dG*dA*dG*dC*dC*dA*dC*dA*dG*dG; antisense) [ISIS 10572]”, in the data set on c-jun mRNA, the “c-jun mRNA % CONTROL” value worked out at 39 % CONTROL.

Values taken from US20030194738A1, “Antisense oligonucleotide compositions and methods for the modulation of activating protein 1” (priority 1997, published 2003).
